From article PMC4147587, “Synthesis and Analgesic Effects of μ-TRTX-Hhn1b on Models of Inflammatory and Neuropathic Pain” (Toxins, 2014)
Like-named read-outs stand apart in the source and are kept apart here. No end group written: not given here.

Legend:
[1] = system: paroxysmal extreme pain disorder (PEPD); conditions: patients; cited from earlier work
Text: (§1) Voltage-gated sodium channels (VGSCs) are essential for the initiation and propagation of action potentials in excitable tissues, such as nerves and muscles. Considerable in vivo and in vitro studies indicate that VGSCs play a key role in neuropathic and inflammatory pain, which begins with the aberrant firing of action potential bursts in damaged neuronal tissue. Of the nine subtypes of VGSCs identified to date and designated as Nav1.1–1.9, Nav1.3, 1.7, 1.8 and 1.9 play specialized roles in nociceptive pathways and are considered ideal targets for the development of analgesi ...

[2] = system: inherited erythromelalgia (IEM); conditions: patients; cited from earlier work
Text: as §1

[3] = system: motor coordination of rats (latency to fall off the rotarod); format: in vivo, rat (Sprague-Dawley); conditions: rat, in vivo
Description: Motor activity was assessed using a rotarod apparatus for rats (Coulbourn Instruments, Lehigh Valley, PA, USA). The rotarod might be set at any speed from 0 to 50 rpm. For motor coordination assessment, rats were trained for 2 days by walking them each day on an accelerating rotarod from 4 to 40 rpm for 10 min. […] Motor performance was considered as the latency to fall off the rotarod apparatus determined from the mean time in three trials for each rat at each time.

[4] = system: rat models of neuropathic pain; conditions: 37.5 mg/kg i.p., cited from earlier work
Text: A total of 30 rats with mechanical allodynia were divided into five groups randomly.

[5] = system: formalin-induced pain behaviors in rats; assay: formalin-induced inflammatory rat model; format: in vivo, rat (Sprague-Dawley); conditions: rat, in vivo, ip
Description: Acute and chronic nociceptive responses were measured using the rat paw formalin test as descried by Dubission and modified by Malmberg. Adult Sprague-Dawley rats (male, weighing 180–220 g) were used for this behavioral test. During the test, each rat was placed into open polyvinyl cages (30 cm × 40 cm × 30 cm) and at least 30 min before administration of the toxin. All agents were administered 30 min prior to s.c. intraplantar formalin injection. A volume of 50 μL formalin (5%) solution was used as previously described and injected into the plantar surface of one hind paw. Lifting, favoring, licking, shaking and flinching of the injected paw were recorded as nociceptive responses. The total time of the nociceptive response was measured every 5 min and […] (mean ± SEM). Recording of nociceptive behavior commenced immediately after formalin injection and was continued for 40 min.

Nav1.7 = conditions: native toxin; ref 27 (unpublished work, 2014); cited from earlier work
Text: μ-TRTX-Hhn1b (HNTX-IV) is a 35-residue peptide from tarantula Ornithoctonus hainana (Haplopelma hainanum) venom. The amino acid sequence is […]. The peptide amidated at its C-terminal has a high proportion of basic residues and is crosslinked by three disulfide bonds.

human Nav1.7 = biological target: T1, human Nav1.7 (Homo sapiens, UniProt Q15858); assay: whole-cell patch clamp, human Nav1.7 transiently expressed in HEK 293 cells; format: cell-based; conditions: comparison group printed as "native toxin group"
T1 construct: expressed in transfected cells; host or cells: HEK293 cells, transient transfection with Lipofectamine 2000
T1 sequence (Q15858 other isoform, or with tags, fused parts or gaps): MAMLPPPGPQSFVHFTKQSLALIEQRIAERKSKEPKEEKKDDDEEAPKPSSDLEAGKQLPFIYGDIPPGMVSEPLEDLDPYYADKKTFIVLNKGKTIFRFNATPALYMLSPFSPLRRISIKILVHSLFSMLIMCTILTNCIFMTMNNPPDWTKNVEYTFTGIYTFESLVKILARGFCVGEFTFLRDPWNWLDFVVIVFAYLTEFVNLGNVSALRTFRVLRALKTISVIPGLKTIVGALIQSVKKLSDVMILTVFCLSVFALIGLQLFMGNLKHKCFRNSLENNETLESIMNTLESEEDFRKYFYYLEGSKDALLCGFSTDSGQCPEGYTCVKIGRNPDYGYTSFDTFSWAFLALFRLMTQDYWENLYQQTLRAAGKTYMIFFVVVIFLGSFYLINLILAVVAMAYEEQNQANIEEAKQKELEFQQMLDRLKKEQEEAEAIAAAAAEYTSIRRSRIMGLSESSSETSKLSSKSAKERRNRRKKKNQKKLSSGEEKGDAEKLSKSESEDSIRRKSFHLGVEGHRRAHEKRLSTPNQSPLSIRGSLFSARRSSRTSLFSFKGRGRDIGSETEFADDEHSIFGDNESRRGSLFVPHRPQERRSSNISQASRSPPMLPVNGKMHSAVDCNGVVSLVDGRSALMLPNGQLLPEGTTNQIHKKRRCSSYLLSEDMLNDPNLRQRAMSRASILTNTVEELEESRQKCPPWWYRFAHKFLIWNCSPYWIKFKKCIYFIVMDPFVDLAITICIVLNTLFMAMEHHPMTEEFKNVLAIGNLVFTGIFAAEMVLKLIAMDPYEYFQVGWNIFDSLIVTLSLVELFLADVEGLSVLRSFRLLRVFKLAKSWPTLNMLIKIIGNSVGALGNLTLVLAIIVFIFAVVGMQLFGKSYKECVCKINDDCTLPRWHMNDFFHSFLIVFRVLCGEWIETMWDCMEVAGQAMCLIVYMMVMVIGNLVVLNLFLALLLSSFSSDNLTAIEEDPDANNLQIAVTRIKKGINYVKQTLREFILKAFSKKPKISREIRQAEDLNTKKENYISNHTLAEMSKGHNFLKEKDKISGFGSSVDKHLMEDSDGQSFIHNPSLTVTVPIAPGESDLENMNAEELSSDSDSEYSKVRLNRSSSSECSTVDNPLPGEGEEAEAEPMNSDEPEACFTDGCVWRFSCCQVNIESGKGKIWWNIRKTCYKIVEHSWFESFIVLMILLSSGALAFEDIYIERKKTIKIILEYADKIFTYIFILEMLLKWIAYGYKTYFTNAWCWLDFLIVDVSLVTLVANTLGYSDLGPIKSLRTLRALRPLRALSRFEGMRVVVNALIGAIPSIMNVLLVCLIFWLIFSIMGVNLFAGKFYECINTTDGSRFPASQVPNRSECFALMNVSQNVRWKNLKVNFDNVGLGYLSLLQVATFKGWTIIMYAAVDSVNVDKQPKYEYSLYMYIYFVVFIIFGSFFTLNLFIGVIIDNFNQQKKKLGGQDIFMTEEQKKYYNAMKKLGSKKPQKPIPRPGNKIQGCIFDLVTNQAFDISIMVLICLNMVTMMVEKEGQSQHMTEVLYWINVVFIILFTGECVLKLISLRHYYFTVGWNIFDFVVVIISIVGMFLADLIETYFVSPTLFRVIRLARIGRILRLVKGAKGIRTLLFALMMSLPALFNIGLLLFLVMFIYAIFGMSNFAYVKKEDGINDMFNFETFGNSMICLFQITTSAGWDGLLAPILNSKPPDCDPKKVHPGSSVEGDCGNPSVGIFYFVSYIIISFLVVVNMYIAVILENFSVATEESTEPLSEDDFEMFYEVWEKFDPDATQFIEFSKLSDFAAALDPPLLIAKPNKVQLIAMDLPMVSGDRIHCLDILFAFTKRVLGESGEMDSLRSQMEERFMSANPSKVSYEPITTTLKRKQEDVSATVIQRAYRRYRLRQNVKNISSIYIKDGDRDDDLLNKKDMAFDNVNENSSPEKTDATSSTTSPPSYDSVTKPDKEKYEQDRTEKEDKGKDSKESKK
T1 sequence (Q07699 19-218, further chain): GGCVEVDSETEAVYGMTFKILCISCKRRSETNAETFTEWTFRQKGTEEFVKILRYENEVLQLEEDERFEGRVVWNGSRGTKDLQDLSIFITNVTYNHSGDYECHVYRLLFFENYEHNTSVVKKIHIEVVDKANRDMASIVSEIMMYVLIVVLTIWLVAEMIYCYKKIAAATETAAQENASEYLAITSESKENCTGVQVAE
Text: Figure 2 Inhibitory effect of synthetic μ-TRTX-Hhn1b on Nav1.7 expressed on HEK 293 cells. […] (B) The inhibition of μ-TRTX-Hhn1b on Nav1.7 was dose-dependent. […] Data are plotted as a fraction of the maximum conductance. The voltage-dependence of steady-state inactivation was estimated using a standard double-pulse protocol, in which a 20-ms depolarizing test potential of 0 mV followed a 500-ms prepulse at potentials that ranged from −130 to −10 mV with a 10-mV increment. Cells were held at −100 mV.
A human Nav1.7 channel plasmid (accession No. NM_002977) and a plasmid for green ﬂuorescent protein were transiently transfected into human embryonic kidney 293 (HEK293) cells using Lipofectamine 2000 (Invitrogen, Carlsbad, CA, USA) according to the manufacturer’s instructions. HEK293 cells were grown under standard tissue culture conditions (5% CO2; 37 °C) in DMEM supplemented with 10% FBS. The β1 subunit was cotransfected with the Nav1.7 channel to increase the current density. Cells with green ﬂuorescence were selected for whole-cell patch-clamp recording at 36–72 h after transfection. Patch-clamp experiments were performed at room temperature. Suction pipettes (2.0–3.0 MΩ) were made from borosilicate glass capillary tubes using a two-step vertical micropipette puller. The pipette solution contained (in mM): CsCl 145, MgCl2∙6H2O 4, HEPES 10, EGTA 10, glucose 10, ATP 2 (pH 7.2). The external solution contained (in mM): NaCl 145, KCl 2.5, CaCl2 1.5, MgCl2.6H2O 1.2, HEPES 10, glucose 10 (pH 7.4). Experimental data were collected and analyzed using the program Pulse/Pulsefit 8.0 (HEKA Electronics, Pfalz, Germany). Macroscopic sodium currents were filtered at 5 kHz and digitized at 20 kHz with an EPC-9 patch-clamp amplifier (HEKA Electronics, Pfalz, Germany). Series resistance was kept near 5 MΩ and compensated to 65%–70%; linear capacitative and leakage currents were digitally subtracted using the P/4 protocol.

[6] = system: Nav1.2, Nav1.3, Nav1.4, Nav1.5, Nav1.7; conditions: native toxin; ref 27 (unpublished work, 2014); cited from earlier work

For `NC(=O)N1c2ccccc2C=Cc2ccccc21` [carbamazepine], the “control of PEPD” value [1] is listed as “well controlled”.
For `CCN(CC)CC(=O)Nc1c(C)cccc1C` [lidocaine], the “treatment of IEM” value [2] is listed as “very ineffective”.
In the case of `Cc1cccc(C)c1OCC(C)N` (centres unmarked) [mexiletine], the “latency to fall off the rotarod” value [3] is given as “significant latency reduction”, the “treatment of IEM” value [2] is given as “very ineffective” and the “withdrawal threshold to von Frey hair” value ([4]; 15 min after injection) is given as “significantly increased the withdrawal threshold”. For the same compound, the “withdrawal threshold to von Frey hair” value ([4]; 45 min after injection) was “returned to a level non-significantly different from the baseline and vehicle”.
In the case of `CN1CC[C@]23c4c5ccc(O)c4O[C@H]2[C@@H](O)C=C[C@H]3[C@H]1C5` [morphine, reference compound], the pain score [5] is reported as 225.0 ± 55.8 s.
For “ECLGFGKGCNPSNDQCCKSSNLVCSRKHRWCKYEI (disulfide (positions not given here)) [native μ-TRTX-Hhn1b, reference compound]”, the IC50 (Nav1.7) is given as roughly 21 nM, the “half-activation voltage of Nav1.7” value (human Nav1.7) is given as −20.5 ± 0.2 mV and the “half-inactivation voltage of Nav1.7” value (human Nav1.7) is given as −42.6 ± 0.2 mV. For the same compound, the subtype preference [6] was “preferentially inhibited Nav1.2, Nav1.3 and Nav1.7 compared with Nav1.4 and Nav1.5; Nav1.7 was the most sensitive channel”.
